The record followed here is the METLIN SMRT retention time set (Domingo-Almenara et al. 2019).

The data set is described as follows: gradient 5% acetonitrile 3 min, to 50% in 2 min, to 85% in 15 min, held 3 min, 100 µL/min. Particulars: column: Zorbax Extend-C18 2.1 x 50 mm; eluents: water / acetonitrile, 0.1% formic acid. In a few lines: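 Retention times come from adduct peaks that were picked computationally and then checked by hand. The standards, pure and pooled in mixtures of ~100 molecules, were run on a Zorbax Extend-C18 column (2.1 × 50 mm, 1.8 μm) at 100 μL/min with water and acetonitrile, each with 0.1% formic acid. Detection was by quadrupole time-of-flight mass spectrometry in positive and negative ionization mode, with a dead volume of 40 μL and a dwell volume of 900 μL.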
`Cn1nnnc1SCC(=O)OCc1cc(-c2ccco2)on1` displayed an RP-LC retention time of 728 s.

In turn, `Cc1oc(-c2ccccc2)nc1Cc1noc(COc2ccc(F)cc2)n1` registered an RP-LC retention time of 1100 s.

The compound `CCC(=O)Nc1ccc(CCc2nc3ccc(C(=O)NC(C)Cc4ccco4)cc3[nH]2)cc1` (stereo not given) came in with an RP-LC retention time of 630 s.

Compound `CCN(CC)CCCNC(=O)c1cc2n(n1)CC(C)(C(=O)NCc1ccc(F)cc1)N(C)C2=O` (stereo not given) showed an RP-LC retention time of 596 s.

Take `Cc1ccc(-c2noc(CN3N=NC4C(=O)N(c5ccccc5)C(=O)C43)n2)cc1C` (stereo not given): the RP-LC retention time turned out to be 1020 s.

Regarding `O=C(CN1C(=O)NC2(CCCCC2)C1=O)NCc1cccc(Br)c1`, the RP-LC retention time came to 772 s.

As to `COc1cccc2cc(-c3nnc(NC(=O)c4ccc([N+](=O)[O-])s4)o3)oc12`, the RP-LC retention time was determined as 965 s.

For `O=C(NCC1CCN(c2ncccn2)CC1)C(=O)Nc1ccon1`, the RP-LC retention time was found to be 614 s.

Compound `Cc1nc(-c2cc(S(=O)(=O)NCCCN3CCC(C)CC3)c(C)s2)sc1C` showed an RP-LC retention time of 699 s.

`CCOc1ccccc1NC(=O)c1cncc(NS(=O)(=O)c2ccc(OC)cc2)c1` displayed an RP-LC retention time of 798 s.

Compound `CCN1C(=O)CCc2c(C)nc(-c3ccc(OC)cc3)nc21` returned an RP-LC retention time of 901 s.

Consider `CCOc1ccccc1NC(=O)C1CCc2nc(N3CCCCC3)ncc2C1` (stereo not given), for which the RP-LC retention time turned out to be 903 s.

For the compound `Cc1cccn2cc(-c3ccc(NS(=O)(=O)c4ccccc4)cc3)nc12`, the RP-LC retention time worked out at 617 s.

Compound `COc1cccc(-n2ccn3cc(-c4ccc5c(c4)OCO5)nc3c2=O)c1` registered an RP-LC retention time of 775 s.

The compound `O=C(Nc1cccc(Br)c1)c1cnc(-c2ccccc2)nc1-c1ccncc1` registered an RP-LC retention time of 990 s.

`Cc1cc(N2CCOCC2)nc(N2CCOCC2)n1` came in with an RP-LC retention time of 624 s.

Consider `CC(C)c1ccc(S(=O)(=O)N2CCCC2c2nc(-c3cccc(Cl)c3)no2)cc1` (stereo not given), for which the RP-LC retention time was determined as 1350 s.

The compound `CCC(=O)N(C1CCOCC1)C1CCN(S(=O)(=O)c2cc(C)ccc2C)CC1` yielded an RP-LC retention time of 908 s.

On to `O=C(C1=CN(c2ccc3c(c2)OCO3)c2ccccc2S1(=O)=O)N1CCOCC1`, for which the RP-LC retention time worked out at 717 s.

Consider `O=C1COc2cc(S(=O)(=O)N3CCC(C(=O)NC4CCCCC4)CC3)c(Cl)cc2N1`, for which the RP-LC retention time turned out to be 772 s.

`COc1ccc(C(=O)Nc2cccn3c(C)nnc23)cc1F` displayed an RP-LC retention time of 667 s.

Compound `Cc1cc(F)cc2c(=O)c3c([nH]c12)CCN(CC(=O)Nc1ccc2c(c1)OCO2)C3` had an RP-LC retention time of 615 s.

On to `CCCn1c(C)cnc1C1CN(S(=O)(=O)c2ccc(Cl)cc2)C1`, for which the RP-LC retention time came out at 678 s.

Compound `O=C(Cc1cccs1)Nc1cnc(-c2ccccc2)nc1` had an RP-LC retention time of 893 s.

`COc1ccc(CNC(=O)C2CCN(c3nnc4cccc(C)n34)CC2)cc1` had an RP-LC retention time of 646 s.

`CCc1cccc(NC(=O)C2CCN(C(=O)c3ncn4c3COC(c3ccccc3)C4)CC2)c1` (stereo not given) returned an RP-LC retention time of 879 s.

On to `Cn1cc(CC(=O)N2CCC(C(=O)NCC(F)(F)F)CC2)c2ccccc21`, for which the RP-LC retention time was found to be 718 s.

`Cc1oc(-c2[nH]ncc2C(=O)N2CCCC2)cc1S(=O)(=O)Nc1ccc(F)cc1` displayed an RP-LC retention time of 705 s.

`COc1ccc(C(=O)N2CCC3(C2)C(=O)N(C)c2ccccc23)c(OC)c1` (stereo not given) returned an RP-LC retention time of 759 s.

Consider `COC(=O)c1cccc(NS(=O)(=O)c2cc3n(c2)CCCNC3=O)c1`, for which the RP-LC retention time was 641 s.

The compound `O=C(NCc1ccco1)c1nc(Nc2ccc(F)cc2)c2ccccc2n1` showed an RP-LC retention time of 779 s.

In turn, `CCC(C)C(NC(=O)Cc1ccc(OC)c(Cl)c1)C(=O)Nc1nc2ccccc2[nH]1` (stereo not given) came in with an RP-LC retention time of 762 s.

Compound `CCc1ccccc1N1C(=O)CN(S(C)(=O)=O)CC1(C)C(=O)NCc1ccc(F)cc1` (stereo not given) gave an RP-LC retention time of 830 s.

In turn, `Cc1cccc(CNC(=O)C2(C)Oc3cccnc3N(C(C)C)C2=O)c1` (stereo not given) displayed an RP-LC retention time of 1120 s.

Turning to `COCCCNC(=O)C1CCN(c2cnc3nc(C)c(C)nc3c2)CC1`, the RP-LC retention time turned out to be 574 s.

`COc1ccc(C)cc1NC(=O)NCCc1cn(C)c2ncccc12` yielded an RP-LC retention time of 676 s.

For `COc1ccc(CNC(=O)N(Cc2ccsc2)C2CC2)cc1OC`, the RP-LC retention time was found to be 769 s.

As to `CCOc1ccc(S(=O)(=O)N2CCCC2c2nc(-c3ccc(Cl)cc3)no2)cc1` (stereo not given), the RP-LC retention time is 1230 s.

Compound `Cc1nnc(NC(=O)CN2CCCCC2c2nc(C3CC3)no2)s1` (stereo not given) came in with an RP-LC retention time of 755 s.

Compound `CS(=O)(=O)N1CCC(OC2CCN(C(=O)Nc3ccccc3C(F)(F)F)CC2)CC1` registered an RP-LC retention time of 768 s.

Regarding `Cc1noc(C)c1Cc1ccc(C(=O)NCc2nn(C)c3c2CN(C)CC3)o1`, the RP-LC retention time worked out at 578 s.

Turning to `COc1ccc2cccc(NC(=O)c3csc(C)n3)c2n1`, the RP-LC retention time was determined as 1120 s.

For `CCCCN1C(=O)c2ccccc2C(C(=O)NCc2ccncc2)C12CCCCC2` (stereo not given), the RP-LC retention time was 662 s.

For the compound `Cc1sc(NC(=O)c2cccc(Cl)c2)nc1-c1ccc2c(c1)NC(=O)C(C)O2` (stereo not given), the RP-LC retention time came out at 1040 s.

`CCOc1ccc(OCC)c(S(=O)(=O)N2CCN(c3nc(C)cc(N(C)C)n3)CC2)c1` had an RP-LC retention time of 733 s.

As for `Cc1cccc(-c2noc(Cn3c(=O)n(Cc4ccccc4Cl)c(=O)c4sccc43)n2)c1`, the RP-LC retention time is 1150 s.

`CN(CC1CCOC1)C(=O)Nc1cccc(C(F)(F)F)c1` (stereo not given) came in with an RP-LC retention time of 784 s.

`CN1CCN(c2nc(Nc3ccc4c(c3)OCO4)c3cnn(-c4ccccc4)c3n2)CC1` returned an RP-LC retention time of 701 s.

Compound `CCOc1cccc(-c2noc(Cn3ncn4nc(-c5cc(C)ccc5C)cc4c3=O)n2)c1` showed an RP-LC retention time of 1280 s.

On to `Cc1nn2c(CNS(=O)(=O)c3cccc(Cl)c3)c(-c3ccccc3)nc2s1`, for which the RP-LC retention time amounted to 916 s.

In the case of `CCc1ccc(S(=O)(=O)N2CCN(CCc3cn(C)c4ncccc34)CC2)cc1`, the RP-LC retention time worked out at 668 s.

Consider `O=C(Nc1c(-c2ccccc2)nc2ccc(Cl)cn12)c1cccs1`, for which the RP-LC retention time was 735 s.

Compound `Cc1noc(C)c1CC(=O)NCCc1noc(C2CC2)n1` registered an RP-LC retention time of 628 s.

On to `Cc1ccc(NC(=O)C(C)C2CCN(C(=O)Nc3ccccc3)CC2)cc1C` (stereo not given), for which the RP-LC retention time came out at 900 s.

`CC(C)c1ccc(N2C(=O)C3N=NN(Cc4nc(-c5ccc6c(c5)OCO6)no4)C3C2=O)cc1` (stereo not given) registered an RP-LC retention time of 1060 s.

Compound `O=c1ccc(S(=O)(=O)N2CCCCCC2)cn1Cc1ccccc1F` showed an RP-LC retention time of 936 s.

In turn, `Cc1[nH]c(C(=O)N2CCCC(C(=O)NCCN3CCOCC3)C2)c(C)c1C(=O)OC(C)C` (stereo not given) yielded an RP-LC retention time of 607 s.

As for `Cc1nn2c(CNS(=O)(=O)Cc3ccccc3)c(-c3ccccc3)nc2s1`, the RP-LC retention time came to 876 s.

On to `Cc1[nH]nc(-c2ccc(S(=O)(=O)NC3CC3)o2)c1C`, for which the RP-LC retention time stood at 723 s.

Turning to `O=C(CN1CCc2ccccc2C1C(=O)N1CCCCC1)NCc1ccc(Cl)cc1` (stereo not given), the RP-LC retention time worked out at 910 s.

`COc1cc(NC(=O)C2CCN(S(=O)(=O)c3cc(-c4noc(C)n4)cs3)CC2)cc(OC)c1` came in with an RP-LC retention time of 902 s.

For the compound `CCOc1ccc(CC(=O)Nc2cc3c(cc2N(C)C)n(C)c(=O)c(=O)n3C)cc1OCC`, the RP-LC retention time turned out to be 763 s.

The compound `CC(C)n1cnc(S(=O)(=O)N2CCC(C(=O)Nc3ccc(OC(F)(F)F)cc3)CC2)c1` gave an RP-LC retention time of 888 s.

Compound `CCc1ccc(S(=O)(=O)N2CCCC(Cn3cnc4cccnc43)C2)cc1` (stereo not given) registered an RP-LC retention time of 774 s.

`COc1ccccc1NC(=O)N1CCCC1c1cc(C)on1` (stereo not given) displayed an RP-LC retention time of 800 s.

In turn, `O=C(Cn1ncn2c(cc3cc(F)ccc32)c1=O)N1CCN(c2ccccn2)CC1` registered an RP-LC retention time of 605 s.

As for `c1ccc(-c2noc(-c3ccccc3OC3CCNC3)n2)cc1` (stereo not given), the RP-LC retention time was 684 s.

The compound `CC1Cc2ccccc2N1C(=O)CSc1nnc(-c2ccccc2)o1` (stereo not given) had an RP-LC retention time of 1010 s.

In the case of `CCCCC(=O)Nc1ccc2nc(N3CCN(c4ccccc4Cl)CC3)cc(C(=O)O)c2c1`, the RP-LC retention time amounted to 1010 s.

In turn, `Cc1ccc(-c2nc(-c3ccc4c(c3)ncn4CCN3CCCC3)no2)s1` had an RP-LC retention time of 639 s.

Turning to `Cc1ccc(-c2noc(Cn3c(=O)n(-c4ccc(Cl)cc4)c(=O)c4sccc43)n2)cc1C`, the RP-LC retention time is 1150 s.

Consider `Cc1ccc2[nH]cc(CCNC(=O)C(C)n3c4ccccc4c4cnn(C)c(=O)c43)c2c1` (stereo not given), for which the RP-LC retention time was 906 s.

`CC(C)NC(=O)Nc1ccccc1NC(=O)c1cccnc1` returned an RP-LC retention time of 591 s.

As for `CN(Cc1ccco1)C(=O)C1c2ccccc2CC(=O)N1Cc1ccccc1` (stereo not given), the RP-LC retention time was found to be 861 s.

As for `CCc1cccc(NC(=O)N2CCC(OC3CCN(S(C)(=O)=O)CC3)CC2)c1`, the RP-LC retention time was determined as 803 s.

`O=C(O)c1ccc(OCCOc2ccccc2)cc1` registered an RP-LC retention time of 916 s.

On to `CCNC(=O)NC1CCN(c2ccccc2)C1=O` (stereo not given), for which the RP-LC retention time came to 596 s.

Turning to `Cc1oc2ccn(Cc3ccccc3F)c(=O)c2c1C(=O)NCC1CCCO1` (stereo not given), the RP-LC retention time came to 891 s.

The compound `CC(C)Oc1ccc(-c2noc(Cn3cnc4c(oc5ccccc54)c3=O)n2)cc1` gave an RP-LC retention time of 1060 s.

In the case of `CCc1c(C)nc2ncnn2c1NC(C)C`, the RP-LC retention time worked out at 670 s.
